IC50 data for 21 compounds are collected here from patent US11524966B1 (Valo Early Discovery, Inc., priority 2017, dated 2022).

The experiment concerns the target T1, USP25 (USP25-His6, Boston Biochem E-546) (Homo sapiens, UniProt Q9UHP3).
T1 construct: His6; purchased Boston Biochem E-546
T1 sequence (Q9UHP3 1-1055): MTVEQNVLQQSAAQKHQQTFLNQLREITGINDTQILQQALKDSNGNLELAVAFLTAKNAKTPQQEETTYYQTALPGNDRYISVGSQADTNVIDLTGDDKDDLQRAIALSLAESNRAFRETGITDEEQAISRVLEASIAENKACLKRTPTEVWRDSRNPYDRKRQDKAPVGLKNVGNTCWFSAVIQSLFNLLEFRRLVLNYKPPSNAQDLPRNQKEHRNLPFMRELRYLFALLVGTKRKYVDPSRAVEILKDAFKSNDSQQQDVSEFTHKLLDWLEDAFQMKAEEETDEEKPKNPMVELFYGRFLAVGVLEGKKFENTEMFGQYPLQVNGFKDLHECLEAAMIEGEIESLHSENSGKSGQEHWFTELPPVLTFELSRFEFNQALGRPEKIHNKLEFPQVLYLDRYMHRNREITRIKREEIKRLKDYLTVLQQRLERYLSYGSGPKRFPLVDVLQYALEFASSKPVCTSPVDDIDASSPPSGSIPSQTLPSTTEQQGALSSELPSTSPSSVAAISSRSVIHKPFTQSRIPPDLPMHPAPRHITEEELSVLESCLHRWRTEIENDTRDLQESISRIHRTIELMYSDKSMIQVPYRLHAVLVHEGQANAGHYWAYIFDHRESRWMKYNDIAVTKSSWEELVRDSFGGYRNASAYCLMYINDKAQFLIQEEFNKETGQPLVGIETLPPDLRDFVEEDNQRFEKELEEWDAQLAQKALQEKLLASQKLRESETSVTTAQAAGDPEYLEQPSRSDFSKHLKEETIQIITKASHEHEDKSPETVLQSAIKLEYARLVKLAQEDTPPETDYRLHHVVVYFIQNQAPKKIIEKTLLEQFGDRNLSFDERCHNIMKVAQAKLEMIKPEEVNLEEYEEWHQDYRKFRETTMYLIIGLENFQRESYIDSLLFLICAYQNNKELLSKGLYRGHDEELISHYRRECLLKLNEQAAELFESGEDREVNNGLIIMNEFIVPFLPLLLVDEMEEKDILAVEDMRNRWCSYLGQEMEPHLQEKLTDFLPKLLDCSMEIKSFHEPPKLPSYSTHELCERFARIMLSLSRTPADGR
The experiment is described as follows: Ubiquitin-Rhodamine 110 Assay for USP25 Activity, Example A-2. The settings on record: Ubiquitin-Rhodamine 110 assay, Example A-2; read-out: USP25 A-2 IC50 range. In kind it is biochemical. The procedure, abridged: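 Fluorescence (ex 485, em 535 nm) of cleaved ubiquitin-rhodamine 110 (25 nM, below Km) gave IC50 via 4-parameter logistic fit. Reaction: 45 min, room temperature, citric acid stop, after 30 min compound preincubation with 75 pM USP25-His6 in 20 mM Tris pH 8.0, 3 mM BME, 0.03% BGG, 0.01% Triton X-100; top dose 25 μM.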
Broadly, the IC50 is the midpoint of a concentration-inhibition curve. In the case of `Cc1ccc2c(N)c(C(=O)N[C@H]3CCc4nc(N5C[C@@H](N)[C@]6(CCCO6)C5)ccc4C3)sc2n1` [Example 391, 3-amino-N-[(6S)-2-[(5S,9R)-9-amino-1-oxa-7-azaspiro[4.4]nonan-7-yl]-5,6,7,8-tetrahydroquinolin-6-yl]-6-methylthieno[2,3-b]pyridine-2-carboxamide], the IC50 lay within 200 to 2000 nM. As to `CCn1ccc2cc(C(=O)N[C@H]3CCc4nc(N5C[C@H](OC)[C@@H](N)C5)ccc4C3)cnc21` [Example 353, N-[(6S)-2-[(3S,4S)-3-amino-4-methoxypyrrolidin-1-yl]-5,6,7,8-tetrahydroquinolin-6-yl]-1-ethyl-1H-pyrrolo[2,3-b]pyridine-5-carboxamide], the IC50 is greater than 2000 nM. The result for `Cc1ccc2c(N)c(C(=O)N[C@H]3CCc4nc(N5C[C@H](N)[C@@H](C(F)(F)F)C5)ccc4C3)sc2n1` [Example 363, 3-amino-N-[(6S)-2-[(3R,4S)-3-amino-4-(trifluoromethyl)pyrrolidin-1-yl]-5,6,7,8-tetrahydroquinolin-6-yl]-6-methylthieno[2,3-b]pyridine-2-carboxamide] reads 200 to 2000 nM; that for `Cc1ccc2c(N)c(C(=O)N[C@H]3COc4cc(N5C[C@@H](N)[C@H](F)C5)ccc4C3)sc2n1` [Example 3-8, 3-amino-N-((R)-7-((3R,4R)-3-amino-4-fluoropyrrolidin-1-yl)chroman-3-yl)-6-methylthieno[2,3-b]pyridine-2-carboxamide], 200 to 2000 nM; that for `Cc1cnc2c(N)c(C(=O)N[C@H]3CCc4cc(N5CC6COCC(C5)N6)ccc4C3)sc2n1` [Example 456, N-((2S)-6-(3-oxa-7,9-diazabicyclo[3.3.1]nonan-7-yl)-1,2,3,4-tetrahydronaphthalen-2-yl)-7-amino-3-methylthieno[2,3-b]pyrazine-6-carboxamide], greater than 2000 nM. As for `Cc1ccc2c(N)c(C(=O)N[C@H]3COc4cc(N5CC6CNC[C@@](C)(C5)O6)cc(F)c4C3)sc2n1` [Example 414, 3-amino-N-[(3R)-5-fluoro-7-[(1S)-1-methyl-9-oxa-3,7-diazabicyclo[3.3.1]nonan-3-yl]-3,4-dihydro-2H-1-benzopyran-3-yl]-6-methylthieno[2,3-b]pyridine-2-carboxamide], the figure is 200 to 2000 nM. The result for `Cc1ccc2c(N)c(C(=O)N[C@@H]3COc4c(cc(F)c(N5CCNCC5)c4F)C3)sc2n1` (single isomer, unassigned) [Example 3-18] reads greater than 2000 nM. Take `Cc1ccn2ncc(C(=O)N[C@H]3COc4cc(N5CCNCC5)ccc4C3)c2c1` [Example 465, (R)-5-methyl-N-(7-(piperazin-1-yl)chroman-3-yl)pyrazolo[1,5-a]pyridine-3-carboxamide]: the IC50 was greater than 2000 nM. In the case of `Cc1ccc2c(N)c(C(=O)N[C@H]3CCc4nc(N5C[C@H](N)[C@H](OC(C)(F)F)C5)ccc4C3)sc2n1` [Example 357, 3-amino-N-[(6S)-2-[(3S,4R)-3-amino-4-(1,1-difluoroethoxy)pyrrolidin-1-yl]-5,6,7,8-tetrahydroquinolin-6-yl]-6-methylthieno[2,3-b]pyridine-2-carboxamide], the IC50 was in the range of 200 to 2000 nM. As for `O=C(N[C@H]1COc2cc(N3CCNCC3)ccc2C1)c1ccc(NCc2ccc3c(c2)OCCO3)nc1` [Example 471, (R)-6-(((2,3-dihydrobenzo[b][1,4]dioxin-6-yl)methyl)amino)-N-(7-(piperazin-1-yl)chroman-3-yl)nicotinamide], the figure is 200 to 2000 nM; as for `COC[C@H]1CN(c2ccc3c(n2)OC[C@H](NC(=O)c2sc4nc(C)cc(C)c4c2N)C3)C[C@H]1N` [Example 349, 3-amino-N-[(3R)-7-[(3S,4S)-3-amino-4-(methoxymethyl)pyrrolidin-1-yl]-2H,3H,4H-pyrano[2,3-b]pyridin-3-yl]-4,6-dimethylthieno[2,3-b]pyridine-2-carboxamide], 200 to 2000 nM; as for `Cc1ccc2c(N)c(C(=O)N[C@H]3CCc4nc(N5C[C@H](N)[C@@]6(CCCO6)C5)ccc4C3)sc2n1` [Example 393, 3-amino-N-[(6S)-2-[(5R,9S)-9-amino-1-oxa-7-azaspiro[4.4]nonan-7-yl]-5,6,7,8-tetrahydroquinolin-6-yl]-6-methylthieno[2,3-b]pyridine-2-carboxamide], greater than 2000 nM. As for `COc1ccn2ncc(C(=O)N[C@H]3COc4cc(N5CCNCC5)ccc4C3)c2c1` [Example 461, (R)-5-methoxy-N-(7-(piperazin-1-yl)chroman-3-yl)pyrazolo[1,5-a]pyridine-3-carboxamide], the figure is greater than 2000 nM; as for `Cc1ccc2c(N)c(C(=O)N[C@H]3COc4cc(N5C[C@H](N)[C@@H](F)C5)ccc4C3)sc2n1` [Example 3-7, 3-amino-N-((R)-7-((3S,4S)-3-amino-4-fluoropyrrolidin-1-yl)chroman-3-yl)-6-methylthieno[2,3-b]pyridine-2-carboxamide], 200 to 2000 nM. In the case of `Cc1ccc2c(N)c(C(=O)N[C@H]3COc4cc(N5CC[C@]6(CCCNC6)C5)ccc4C3)sc2n1` [Example 3-13, N-((R)-7-((S)-2,7-diazaspiro[4.5]decan-2-yl)chroman-3-yl)-3-amino-6-methylthieno[2,3-b]pyridine-2-carboxamide], the IC50 is 200 to 2000 nM. Turning to `Cc1cnc2c(N)c(C(=O)N[C@H]3CCc4cc(N5CC6CNCC(C5)O6)ccc4C3)sc2n1` [Example 448, N-((2S)-6-(9-oxa-3,7-diazabicyclo[3.3.1]nonan-3-yl)-1,2,3,4-tetrahydronaphthalen-2-yl)-7-amino-3-methylthieno[2,3-b]pyrazine-6-carboxamide], the IC50 lay in the range of 200 to 2000 nM.

Consider `O=C(N[C@H]1COc2cc(N3CCNCC3)ccc2C1)c1cnn2cccnc12` [Example 466, (R)-N-(7-(piperazin-1-yl)chroman-3-yl)pyrazolo[1,5-a]pyrimidine-3-carboxamide], for which the IC50 is greater than 2000 nM. `Cc1cnc2c(N)c(C(=O)N[C@H]3CCc4nc(N5C[C@H](N)C6(COC6)C5)ccc4C3)sc2n1` [Example 365, 7-amino-N-[(6S)-2-[(8R)-8-amino-2-oxa-6-azaspiro[3.4]octan-6-yl]-5,6,7,8-tetrahydroquinolin-6-yl]-3-methylthieno[2,3-b]pyrazine-6-carboxamide]: the IC50 lay in the range of 200 to 2000 nM.

With `CCn1cc(Cl)c2cc(C(=O)N[C@H]3COc4c(C#N)c(N5CC6CCC(C5)N6)cc(F)c4C3)nnc21` [Example 356, 5-chloro-N-[(3R)-8-cyano-7-{3,8-diazabicyclo[3.2.1]octan-3-yl}-5-fluoro-3,4-dihydro-2H-1-benzopyran-3-yl]-7-ethyl-7H-pyrrolo[2,3-c]pyridazine-3-carboxamide], the IC50 lay within 200 to 2000 nM. For the compound `Cc1ccc2c(N)c(C(=O)N[C@H]3CCc4nc(N5C[C@H](C(F)F)[C@@H](N)C5)ccc4C3)sc2n1` [Example 347, 3-amino-N-[(6S)-2-[(3R,4S)-3-amino-4-(difluoromethyl)pyrrolidin-1-yl]-5,6,7,8-tetrahydroquinolin-6-yl]-6-methylthieno[2,3-b]pyridine-2-carboxamide], the 50% inhibitory concentration (IC50) lay within 200 to 2000 nM. Take `Cc1ccc2c(N)c(C(=O)N[C@H]3COc4cc(N5C[C@H](OC(F)(F)F)[C@@H](N)C5)ccc4C3)sc2n1` (single isomer, unassigned) [Example 3-10]: the IC50 lay in the range of 200 to 2000 nM.
